From ChEMBL document CHEMBL3860075, “Synthesis, characterization, and evaluation of (E)-methyl 2-((2-oxonaphthalen-1(2H)-ylidene)methylamino)acetate as a biological agent and an anion sensor” (Bioorg Med Chem, 2016)
Values after ≈ are worked out from the molar mass of the structure shown. Active and inactive are the calls of the source. The calls are words filed in the database; no cut-off is given here.

Columns and labels:
Candida tropicalis = assay: Antimicrobial activity against Candida tropicalis ATCC 13803 after 24 hrs by broth microdilution assay; format: functional; details: ATCC 13803, 24 h
Proteus vulgaris = assay: Antimicrobial activity against Proteus vulgaris ATCC 13315 after 24 hrs by broth microdilution assay; format: functional; details: ATCC 13315, 24 h
[1] = Binding affinity to 1 equiv tetrabutylamonium fluoride anion assessed as disappearance of peak by 1H NMR method
Bos taurus [2] = organism: Bos taurus; assay: Binding affinity to calf thymus DNA assessed as bathochromism at 3 10^-5M after 5 mins by UV-visible spectroscopic analysis
Pseudomonas aeruginosa = assay: Antimicrobial activity against Pseudomonas aeruginosa ATCC 254992 after 24 hrs by broth microdilution assay; format: functional; details: ATCC 254992, 24 h
Escherichia coli [3] = assay: Antimicrobial activity against Escherichia coli ATCC 35218 after 24 hrs by broth microdilution assay; format: functional; details: ATCC 35218, 24 h
Escherichia coli [4] = assay: Induction of oxidative cleavage of Escherichia coli supercoiled pBR322 DNA assessed as increase in nicked circular form at 25 uM after 3 hrs in presence of H2O2 by agarose gel electrophoretic analysis
[5] = Binding affinity to 0.5 equiv tetrabutylamonium fluoride anion assessed as decrease in N-H proton intensity by 1H NMR method
Candida albicans = assay: Antimicrobial activity against Candida albicans ATCC 60193 after 24 hrs by broth microdilution assay; format: functional; details: ATCC 60193, 24 h
[6] = Binding affinity to cyanide anion assessed as compound color change from colorless to yellow at compound:anion ratio of 1:1 under UV light by colorimetric method
Bos taurus [7] = organism: Bos taurus; assay: Binding affinity to calf thymus DNA assessed as formation of intense band at 260 nanometer at 3 10^-5M after 5 mins by UV-visible spectroscopic analysis
Escherichia coli [8] = assay: Induction of hydrolytic cleavage of Escherichia coli supercoiled pBR322 DNA assessed as increase in nicked circular form at 200 uM after 3 hrs by agarose gel electrophoretic analysis
Bacillus spizizenii = assay: Antimicrobial activity against Bacillus subtilis ATCC 6633 after 24 hrs by broth microdilution assay; format: functional; details: ATCC 6633, 24 h
Staphylococcus aureus = assay: Antimicrobial activity against Staphylococcus aureus ATCC 25923 after 24 hrs by broth microdilution assay; format: functional; details: ATCC 25923, 24 h
Salmonella typhimurium [9] = assay: Genotoxicity in Salmonella typhimurium TA100 at 0.5 to 500 ppm per plate in absence of S9 fraction by Ames test; format: toxicity, organism-based; details: salmonella enterica subsp. enterica serovar typhimurium
[10] = Binding affinity to cyanide anion assessed as disappearance of peak at 430 nanometer at 5 10^-6M by UV-visible spectroscopic analysis
Salmonella typhimurium [11] = assay: Genotoxicity in Salmonella typhimurium TA98 at 0.5 to 500 ppm per plate in absence of S9 fraction by Ames test; format: toxicity, organism-based; details: salmonella enterica subsp. enterica serovar typhimurium
[12] = Binding affinity to cyanide anion assessed as compound color change from colorless to yellow at compound:anion ratio of 1:1 under natural light by colorimetric method
Enterococcus faecalis = assay: Antimicrobial activity against Enterococcus faecalis ATCC 29212 after 24 hrs by broth microdilution assay; format: functional; details: ATCC 29212, 24 h
Escherichia coli [13] = assay: Antimicrobial activity against Escherichia coli ATCC 25922 after 24 hrs by broth microdilution assay; format: functional; details: ATCC 25922, 24 h

SMILES: OC(Cn1cncn1)(Cn1cncn1)c1ccc(F)cc1F [FLUCONAZOLE]
- MIC (Candida tropicalis): 32 µg/mL (≈ 104 µM)

SMILES: COC(=O)CN/C=C1/C(=O)C=Cc2ccccc21
- MIC (Proteus vulgaris): 256 µg/mL (≈ 1050 µM)
- Activity [1]: Active
- Activity (Bos taurus [2]): 1 to 4 nm
- MIC (Pseudomonas aeruginosa): 128 µg/mL (≈ 526 µM)
- MIC (Escherichia coli [3]): 256 µg/mL (≈ 1050 µM)
- MIC (Candida tropicalis): 128 µg/mL (≈ 526 µM)
- Activity (Escherichia coli [4]): Active
- Activity [5]: Active
- MIC (Candida albicans): 128 µg/mL (≈ 526 µM)
- Activity [6]: Active
- Activity (Bos taurus [7]): Active
- Activity (Escherichia coli [8]): Active
- MIC (Bacillus spizizenii): 128 µg/mL (≈ 526 µM)
- MIC (Staphylococcus aureus): 128 µg/mL (≈ 526 µM)
- Activity (Salmonella typhimurium [9]): > 40%
- Activity [10]: Active
- Activity (Salmonella typhimurium [11]): Non-Toxic
- Activity [12]: Active
- MIC (Enterococcus faecalis): 256 µg/mL (≈ 1050 µM)
- MIC (Escherichia coli [13]): 256 µg/mL (≈ 1050 µM)

SMILES: CC1(C)S[C@@H]2[C@H](NC(=O)[C@H](N)c3ccccc3)C(=O)N2[C@H]1C(=O)O [AMPICILLIN]
- MIC (Proteus vulgaris): 2 µg/mL (≈ 5.72 µM)
- MIC (Pseudomonas aeruginosa): 2 µg/mL (≈ 5.72 µM)
- MIC (Bacillus spizizenii): 1 µg/mL (≈ 2.86 µM)
- MIC (Enterococcus faecalis): 2 µg/mL (≈ 5.72 µM)
